# Laboratory results published in ChEMBL document CHEMBL1201862, “PubChem BioAssay data set” (2004).
# Active and inactive are the calls of the source.
# Legend:
# [1] = biological target: T1, Protein skinhead-1 (Caenorhabditis elegans, UniProt P34707); type: functional
# T1 sequence (P34707 whole entry): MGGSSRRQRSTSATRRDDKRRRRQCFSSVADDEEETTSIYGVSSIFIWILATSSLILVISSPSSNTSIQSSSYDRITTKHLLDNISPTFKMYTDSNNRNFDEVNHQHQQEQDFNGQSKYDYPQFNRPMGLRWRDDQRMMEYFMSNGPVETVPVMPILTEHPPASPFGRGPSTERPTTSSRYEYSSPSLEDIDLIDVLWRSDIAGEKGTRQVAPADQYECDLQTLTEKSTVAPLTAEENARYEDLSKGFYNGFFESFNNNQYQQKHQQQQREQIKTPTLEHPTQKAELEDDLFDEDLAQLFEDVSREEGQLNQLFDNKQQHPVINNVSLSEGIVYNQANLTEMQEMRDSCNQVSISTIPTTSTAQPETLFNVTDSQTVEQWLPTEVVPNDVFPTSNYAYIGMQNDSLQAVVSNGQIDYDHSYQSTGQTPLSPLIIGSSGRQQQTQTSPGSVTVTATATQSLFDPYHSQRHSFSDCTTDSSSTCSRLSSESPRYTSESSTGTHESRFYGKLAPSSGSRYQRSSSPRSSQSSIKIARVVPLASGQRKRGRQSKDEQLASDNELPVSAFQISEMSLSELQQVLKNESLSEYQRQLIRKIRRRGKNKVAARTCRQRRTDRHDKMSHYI
# [2] = biological target: G-protein coupled receptor 55 (Homo sapiens, UniProt Q9Y2T6); experiment: inhibition of LPI-stimulated GPR55 beta-arrestin translocation – imaging, U2OS, beta-arrestin-GFP, LPI agonist, primary screen (AID 2013); type: functional;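 also: antagonist potency measured as reduced agonist-driven arrestin aggregation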
# [3] = system: HEK293; experiment: NOD2 signaling inhibitors in MDP-stimulated cells, cell-based, uHTS, luminescence (AID 2001); type: functional; conditions: Homo sapiens
# [4] = system: HEK293; experiment: cells; type: functional, cell-based; conditions: Homo sapiens
# [5] = biological target: Nucleotide-binding oligomerization domain-containing protein 2 (Homo sapiens, UniProt Q9HC29); experiment: inhibition of NOD2-driven NF-kB reporter – cell-based, luminescence, uHTS, HEK293 (AID 1566); type: functional
# [6] = system: HEK293; experiment: cells; type: functional, cell-based; conditions: Homo sapiens; remark: listed apart in the source
# [7] = system: HEK293; experiment: inhibition of NOD1-driven NF-kB reporter – cell-based, luminescence, uHTS, primary screen (AID 1578); type: functional; conditions: Homo sapiens
# [8] = system: HEK293; experiment: cells; type: functional, cell-based; conditions: Homo sapiens; remark: listed apart in the source
# [9] = biological target: Cytochrome P450 2C9 (Homo sapiens, UniProt P11712)
# [10] = biological target: T2, Heat shock factor protein 1 (Mus musculus, UniProt P38532); experiment: enhancement of HSF1-driven luciferase signal – cell-based, NIH3T3, luminescence, dose retest, confirmation (AID 435004); type: functional;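 also: stress induced by proteasome inhibitor MG132 added 30 min after compound; luciferase reporter driven by HSF1 response element in NIH3T3 cells; actives raise luminescence as potentiators of the MG132 stress response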
# T2 sequence (P38532 whole entry): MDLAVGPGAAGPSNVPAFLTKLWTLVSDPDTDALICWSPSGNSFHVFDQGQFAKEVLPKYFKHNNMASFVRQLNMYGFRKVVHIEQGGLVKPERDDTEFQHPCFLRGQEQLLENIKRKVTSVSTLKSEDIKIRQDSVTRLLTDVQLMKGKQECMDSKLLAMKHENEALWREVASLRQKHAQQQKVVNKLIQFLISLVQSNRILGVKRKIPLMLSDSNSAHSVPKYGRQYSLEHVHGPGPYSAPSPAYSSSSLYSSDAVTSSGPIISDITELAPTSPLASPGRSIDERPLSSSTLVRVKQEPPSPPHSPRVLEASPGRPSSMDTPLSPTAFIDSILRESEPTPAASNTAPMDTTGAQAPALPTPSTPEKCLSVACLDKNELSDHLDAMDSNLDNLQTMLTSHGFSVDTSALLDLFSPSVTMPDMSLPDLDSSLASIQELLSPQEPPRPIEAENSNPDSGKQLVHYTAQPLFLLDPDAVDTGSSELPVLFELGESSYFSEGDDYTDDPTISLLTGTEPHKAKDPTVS
# [11] = system: HEK293; experiment: EBV LMP1 TES2 canonical NF-kB signalling blockers – cell-based, HEK293, luciferase, cherry-pick, dose response (AID 588343); type: functional; conditions: Homo sapiens
# [12] = biological target: Paired box protein Pax-8 (Homo sapiens, UniProt Q06710); experiment: PAX8 transcriptional activity inhibition in RMG-I – RMG-I cells, luciferase, cherry-pick, dose response (AID 687027); type: functional, cell-based;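 also: luciferase reporter driven by Pax8 target thyroperoxidase promoter measured by SteadyGlo luminescence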
# [13] = biological target: T3, Calpain-2 catalytic subunit (Sus scrofa, UniProt P43367); experiment: m-calpain protease blockers, concentration series – biochemical, fluorogenic peptide substrate, dose response (AID 1420); type: functional
# T3 sequence (P43367 whole entry): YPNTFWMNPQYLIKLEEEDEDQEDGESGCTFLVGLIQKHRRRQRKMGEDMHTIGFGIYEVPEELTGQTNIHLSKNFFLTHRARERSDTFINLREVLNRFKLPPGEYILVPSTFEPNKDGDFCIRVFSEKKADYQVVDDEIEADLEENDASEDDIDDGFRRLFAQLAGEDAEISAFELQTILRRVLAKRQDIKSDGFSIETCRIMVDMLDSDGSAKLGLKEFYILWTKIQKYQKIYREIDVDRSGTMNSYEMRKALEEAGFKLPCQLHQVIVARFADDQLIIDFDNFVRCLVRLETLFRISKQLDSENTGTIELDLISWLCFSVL
# [14] = biological target: Heat shock protein HSP 90-alpha (Homo sapiens, UniProt P07900); type: functional, organism-based
# [15] = biological target: T4, Replicative DNA helicase DnaB (Mycobacterium tuberculosis, UniProt P9WMR3); experiment: DnaB intein splicing inhibitors, dose response, biochemical, cell-free fluorescence (AID 449749); type: functional
# T4 sequence (P9WMR3 whole entry): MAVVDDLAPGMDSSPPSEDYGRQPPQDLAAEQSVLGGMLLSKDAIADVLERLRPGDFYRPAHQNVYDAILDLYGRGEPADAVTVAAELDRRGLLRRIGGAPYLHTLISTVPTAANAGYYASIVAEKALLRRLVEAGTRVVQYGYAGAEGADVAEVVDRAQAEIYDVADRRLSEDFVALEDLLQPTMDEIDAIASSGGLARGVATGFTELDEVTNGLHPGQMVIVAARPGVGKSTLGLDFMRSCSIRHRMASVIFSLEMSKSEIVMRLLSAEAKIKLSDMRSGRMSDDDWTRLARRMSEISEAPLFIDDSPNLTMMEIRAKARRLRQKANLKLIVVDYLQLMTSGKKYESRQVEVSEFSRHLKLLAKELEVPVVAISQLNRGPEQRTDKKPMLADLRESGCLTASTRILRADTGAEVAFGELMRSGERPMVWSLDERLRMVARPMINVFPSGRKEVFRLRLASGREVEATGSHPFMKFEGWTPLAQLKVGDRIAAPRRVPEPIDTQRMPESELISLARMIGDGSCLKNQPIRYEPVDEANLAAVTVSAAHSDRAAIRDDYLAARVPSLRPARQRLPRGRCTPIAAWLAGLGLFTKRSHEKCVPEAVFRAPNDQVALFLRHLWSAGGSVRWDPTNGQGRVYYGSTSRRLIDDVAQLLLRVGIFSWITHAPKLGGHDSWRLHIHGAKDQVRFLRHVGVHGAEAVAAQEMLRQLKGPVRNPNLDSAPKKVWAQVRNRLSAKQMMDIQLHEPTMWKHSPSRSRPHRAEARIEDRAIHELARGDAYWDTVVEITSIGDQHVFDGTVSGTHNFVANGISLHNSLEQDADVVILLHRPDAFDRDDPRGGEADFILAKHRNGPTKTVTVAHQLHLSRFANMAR
# [16] = Luminescence Cell-Based Dose Response HTS to Identify Activators of Luciferase Translation or Activity in H4 […] Cells. [Related pubchem assays: 1829 (Project Summary), 1814 (Primary HTS)]; type: functional
# [17] = biological target: T5, Protein RecA (Mycobacterium tuberculosis, UniProt P9WHJ3); experiment: Fluorescence Cell-Free Homogeneous Dose Retest to Identify Inhibitors of RecA-Intein Splicing Activity. [Related pubchem assays (depositor defined):AID2097, AID2223, AID489010, AID492950]; type: functional
# T5 sequence (P9WHJ3 whole entry): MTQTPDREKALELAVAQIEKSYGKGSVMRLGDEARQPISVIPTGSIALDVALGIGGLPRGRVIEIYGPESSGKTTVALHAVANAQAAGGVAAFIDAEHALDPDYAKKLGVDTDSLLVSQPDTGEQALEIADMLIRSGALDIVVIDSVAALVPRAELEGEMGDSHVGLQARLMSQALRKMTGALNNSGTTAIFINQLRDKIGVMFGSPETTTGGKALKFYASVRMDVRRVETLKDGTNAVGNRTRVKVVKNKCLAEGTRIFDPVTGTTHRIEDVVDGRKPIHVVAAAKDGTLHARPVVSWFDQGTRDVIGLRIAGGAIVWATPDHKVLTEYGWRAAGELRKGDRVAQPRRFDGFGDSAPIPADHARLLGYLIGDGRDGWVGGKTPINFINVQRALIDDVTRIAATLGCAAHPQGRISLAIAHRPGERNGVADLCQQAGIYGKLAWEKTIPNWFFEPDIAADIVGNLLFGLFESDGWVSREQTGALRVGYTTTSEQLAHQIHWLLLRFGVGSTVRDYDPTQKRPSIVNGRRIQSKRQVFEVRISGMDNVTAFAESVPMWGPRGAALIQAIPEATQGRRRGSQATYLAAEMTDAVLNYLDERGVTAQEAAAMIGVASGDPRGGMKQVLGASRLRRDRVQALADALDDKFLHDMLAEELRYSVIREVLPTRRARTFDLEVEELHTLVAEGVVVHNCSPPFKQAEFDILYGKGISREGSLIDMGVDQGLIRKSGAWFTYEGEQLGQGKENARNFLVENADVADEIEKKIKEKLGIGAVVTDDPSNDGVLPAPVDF
# [18] = system: SN12K1; experiment: cells; type: functional; conditions: Homo sapiens
# [19] = biological target: Cytochrome P450 2D6 (Homo sapiens, UniProt P10635);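 also: CYP2D6 member of a cytochrome P450 panel assay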
# [20] = blockers of HIV-1 envelope-mediated cell-cell fusion – cherry-pick, dose response (AID 652057); type: functional, cell-based
# [21] = biological target: Cytochrome P450 2C19 (Homo sapiens, UniProt P33261); experiment: Cytochrome panel assay with activity outcomes. Panel member name: p450-cyp2c19 Compounds with AC50 equal or less than 10 uM are considered active; type: functional
# [22] = biological target: Cytochrome P450 3A4 (Homo sapiens, UniProt P08684);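 also: CYP3A4 tested as one member of a cytochrome P450 panel screen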
# [23] = NIH3T3 cell viability loss – ATP luminescence, mouse fibroblasts, counter-screen, dose response (AID 2010); type: functional, cell-based;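 also: cells exposed to compound for about 90 hours before reading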
# [24] = Trypanosoma cruzi growth suppression in host cells – NIH3T3 host cells, beta-gal luminescence, confirmation (AID 2044); type: functional, cell-based;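 also: intracellular parasites grown in NIH/3T3 mouse fibroblasts as host cells; luminescent beta-galactosidase reporter signal from transgenic T. cruzi replicating inside host cells; inhibitors lower the luminescence signal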
# [25] = Luminescence Cell-Based Dose Retest to Confirm Inhibitors of Cancer Stem Cells. [Related pubchem assays (depositor defined):AID2717, AID2721]; type: functional, Homo sapiens; conditions: Homo sapiens
# Cytochrome P450 2C9, sequence (P11712 whole entry): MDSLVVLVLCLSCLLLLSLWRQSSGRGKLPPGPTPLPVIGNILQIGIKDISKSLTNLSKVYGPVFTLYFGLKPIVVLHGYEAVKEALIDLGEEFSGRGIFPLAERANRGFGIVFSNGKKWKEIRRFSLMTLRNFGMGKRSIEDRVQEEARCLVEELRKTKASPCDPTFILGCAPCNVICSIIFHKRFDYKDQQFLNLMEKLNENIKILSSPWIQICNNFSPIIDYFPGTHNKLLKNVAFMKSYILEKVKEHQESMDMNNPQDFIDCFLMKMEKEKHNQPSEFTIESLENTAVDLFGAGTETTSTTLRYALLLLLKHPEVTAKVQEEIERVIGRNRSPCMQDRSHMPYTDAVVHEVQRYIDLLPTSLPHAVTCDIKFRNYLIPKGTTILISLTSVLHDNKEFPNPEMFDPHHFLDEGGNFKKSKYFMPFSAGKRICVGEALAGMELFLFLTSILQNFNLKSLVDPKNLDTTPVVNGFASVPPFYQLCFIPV
# Cytochrome P450 3A4, sequence (P08684 whole entry): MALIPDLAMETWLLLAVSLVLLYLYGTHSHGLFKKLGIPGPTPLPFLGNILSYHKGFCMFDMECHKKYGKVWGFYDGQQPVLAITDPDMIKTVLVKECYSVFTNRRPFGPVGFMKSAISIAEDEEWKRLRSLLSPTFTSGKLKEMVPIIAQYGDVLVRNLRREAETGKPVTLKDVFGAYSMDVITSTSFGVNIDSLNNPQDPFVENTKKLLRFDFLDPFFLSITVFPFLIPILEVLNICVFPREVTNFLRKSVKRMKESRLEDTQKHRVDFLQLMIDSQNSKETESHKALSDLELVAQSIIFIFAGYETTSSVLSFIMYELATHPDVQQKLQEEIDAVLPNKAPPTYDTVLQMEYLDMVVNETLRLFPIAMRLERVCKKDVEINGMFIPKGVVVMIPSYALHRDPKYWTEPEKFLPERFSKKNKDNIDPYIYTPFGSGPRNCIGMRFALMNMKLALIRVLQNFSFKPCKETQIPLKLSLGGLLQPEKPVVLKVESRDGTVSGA
# Cytochrome P450 2C19, sequence (P33261 whole entry): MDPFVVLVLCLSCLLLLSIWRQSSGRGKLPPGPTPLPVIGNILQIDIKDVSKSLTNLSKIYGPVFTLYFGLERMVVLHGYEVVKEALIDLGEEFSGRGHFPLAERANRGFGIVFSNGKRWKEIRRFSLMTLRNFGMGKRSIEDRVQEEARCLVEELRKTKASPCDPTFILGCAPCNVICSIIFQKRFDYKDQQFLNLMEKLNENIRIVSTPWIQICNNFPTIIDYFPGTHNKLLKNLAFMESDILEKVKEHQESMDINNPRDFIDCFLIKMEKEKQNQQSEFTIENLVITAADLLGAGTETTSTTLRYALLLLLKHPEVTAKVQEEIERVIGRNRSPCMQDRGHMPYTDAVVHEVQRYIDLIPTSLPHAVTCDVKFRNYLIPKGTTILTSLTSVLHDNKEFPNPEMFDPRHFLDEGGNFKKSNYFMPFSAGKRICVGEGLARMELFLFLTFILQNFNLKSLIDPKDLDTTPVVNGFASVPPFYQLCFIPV
# Cytochrome P450 2D6, sequence (P10635 whole entry, the tested form may be a part): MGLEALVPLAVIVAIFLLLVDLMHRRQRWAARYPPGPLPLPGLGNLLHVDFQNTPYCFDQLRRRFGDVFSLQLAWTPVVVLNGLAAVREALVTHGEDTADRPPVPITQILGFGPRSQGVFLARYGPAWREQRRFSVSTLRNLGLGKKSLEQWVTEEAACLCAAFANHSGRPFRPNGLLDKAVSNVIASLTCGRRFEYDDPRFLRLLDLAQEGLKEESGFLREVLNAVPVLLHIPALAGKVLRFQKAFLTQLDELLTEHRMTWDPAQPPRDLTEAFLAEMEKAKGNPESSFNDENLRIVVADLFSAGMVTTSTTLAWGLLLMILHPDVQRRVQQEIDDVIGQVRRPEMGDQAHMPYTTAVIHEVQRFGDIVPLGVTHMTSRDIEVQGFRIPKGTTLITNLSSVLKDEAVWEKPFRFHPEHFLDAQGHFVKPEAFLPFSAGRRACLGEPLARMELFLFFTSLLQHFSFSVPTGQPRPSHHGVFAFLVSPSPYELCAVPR
# Nucleotide-binding oligomerization domain-containing protein 2, sequence (Q9HC29 whole entry, the tested form may be a part): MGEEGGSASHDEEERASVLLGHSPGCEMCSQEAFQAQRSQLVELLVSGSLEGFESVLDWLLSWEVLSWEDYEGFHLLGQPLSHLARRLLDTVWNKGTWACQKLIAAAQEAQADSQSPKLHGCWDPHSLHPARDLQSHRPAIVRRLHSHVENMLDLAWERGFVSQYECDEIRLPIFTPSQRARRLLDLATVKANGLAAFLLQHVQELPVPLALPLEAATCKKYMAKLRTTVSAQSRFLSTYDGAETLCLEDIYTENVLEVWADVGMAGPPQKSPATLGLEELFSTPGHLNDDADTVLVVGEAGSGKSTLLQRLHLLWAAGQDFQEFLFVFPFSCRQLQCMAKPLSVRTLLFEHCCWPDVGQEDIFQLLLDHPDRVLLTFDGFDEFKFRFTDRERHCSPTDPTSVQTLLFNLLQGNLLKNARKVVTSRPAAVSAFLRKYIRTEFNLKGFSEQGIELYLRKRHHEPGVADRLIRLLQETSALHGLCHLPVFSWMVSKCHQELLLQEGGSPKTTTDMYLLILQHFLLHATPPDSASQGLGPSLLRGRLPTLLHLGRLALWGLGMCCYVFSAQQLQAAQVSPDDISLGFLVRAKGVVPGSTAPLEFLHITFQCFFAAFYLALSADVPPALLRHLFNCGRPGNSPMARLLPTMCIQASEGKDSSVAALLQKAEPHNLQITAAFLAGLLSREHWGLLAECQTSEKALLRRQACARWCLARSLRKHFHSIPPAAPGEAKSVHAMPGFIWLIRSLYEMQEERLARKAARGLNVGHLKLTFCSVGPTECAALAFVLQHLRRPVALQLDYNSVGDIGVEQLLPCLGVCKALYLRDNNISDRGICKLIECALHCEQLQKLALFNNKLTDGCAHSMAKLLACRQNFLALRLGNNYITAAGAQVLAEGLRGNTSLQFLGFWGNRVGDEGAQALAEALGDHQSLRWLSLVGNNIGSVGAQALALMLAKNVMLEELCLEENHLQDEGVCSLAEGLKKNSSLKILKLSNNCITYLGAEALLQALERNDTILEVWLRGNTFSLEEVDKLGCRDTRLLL
# Paired box protein Pax-8, sequence (Q06710 whole entry): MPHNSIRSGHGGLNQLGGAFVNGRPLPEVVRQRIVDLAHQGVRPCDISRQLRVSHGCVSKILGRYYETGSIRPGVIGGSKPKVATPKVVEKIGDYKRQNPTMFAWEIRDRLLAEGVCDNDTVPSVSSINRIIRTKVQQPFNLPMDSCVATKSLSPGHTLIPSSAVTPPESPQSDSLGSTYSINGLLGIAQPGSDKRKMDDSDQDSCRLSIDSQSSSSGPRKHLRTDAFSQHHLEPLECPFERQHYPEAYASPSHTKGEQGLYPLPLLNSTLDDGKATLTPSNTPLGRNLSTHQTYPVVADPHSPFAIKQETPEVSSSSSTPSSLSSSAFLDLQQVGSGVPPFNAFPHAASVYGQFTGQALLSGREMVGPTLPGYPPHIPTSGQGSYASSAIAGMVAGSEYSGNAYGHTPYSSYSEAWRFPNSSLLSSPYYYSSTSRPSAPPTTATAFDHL
# G-protein coupled receptor 55, sequence (Q9Y2T6 whole entry): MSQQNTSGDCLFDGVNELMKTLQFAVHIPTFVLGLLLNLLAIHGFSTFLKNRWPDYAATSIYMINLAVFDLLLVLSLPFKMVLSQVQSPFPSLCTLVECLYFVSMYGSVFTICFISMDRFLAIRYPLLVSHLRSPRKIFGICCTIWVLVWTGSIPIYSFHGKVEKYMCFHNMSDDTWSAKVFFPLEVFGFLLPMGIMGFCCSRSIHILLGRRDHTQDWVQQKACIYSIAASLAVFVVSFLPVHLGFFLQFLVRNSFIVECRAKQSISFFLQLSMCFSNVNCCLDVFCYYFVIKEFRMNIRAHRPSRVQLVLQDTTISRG
structure (smiles),measurement,setting,value
CN1/C(=C/C(=O)CSc2ccccc2C(=O)O)C(C)(C)c2ccccc21,IC50,[1],> 100 µM (inactive)
same,IC50,[2],3.44 µM (active)
Cc1ccc(NC(=O)CSc2ncnc3ccccc23)cc1S(=O)(=O)N1CCCCC1,IC50,[3],1.73 µM (active)
same,IC50,[4],6.83 µM (active)
same,EC50,[5],4.73 µM (active)
same,IC50,[6],> 20 µM (inactive)
same,EC50,[7],4.43 µM (active)
same,IC50,[8],1.81 µM (active)
COc1cc(C)nc(N2CCCC(C(=O)Nc3cc(Cl)ccc3OC)C2)n1 (configuration not stated),AC50,[9],inconclusive
Cc1cc(Sc2nnc(N)s2)c2ccccc2n1,EC50,[10],14.6 µM (active)
same,AC50,[11],3.03 µM (active)
same,AC50,[12],4.58 µM (active)
Cc1ccc(C(=O)N2CCN(c3ccccc3Cl)CC2)cc1[N+](=O)[O-],IC50,[13],> 50 µM (not active)
same,AC50,[14],4.18 µM (active)
COc1ccc(Nc2cnn(-c3nc4ccccc4s3)c(=O)c2Cl)cc1,AC50,[15],> 380 µM (inactive)
same,EC50,[16],198 nM (active)
same,AC50,[14],3.21 µM (active)
same,EC50,[17],4.01 µM (active)
Cc1ccc(CNC(=O)C2CC(c3ccccc3[N+](=O)[O-])=NO2)o1 (configuration not stated),AC50,[9],inconclusive
C[C@]12CC[C@@H]3c4ccc(OC(=O)N(CCCl)CCCl)cc4CC[C@H]3[C@@H]1CC[C@@H]2O [ESTRAMUSTINE],GI50,[18],25 nM (active)
Nc1nc(-c2ccccc2)c(-c2ccccc2)s1,AC50,[9],inconclusive
same,AC50,[19],15.8 µM (inconclusive)
CCCCNC(=O)C[C@H]1C[C@@]2(C(=O)OC)C(=C[C@H](C(C)(C)C)O[C@@H]2C)N(Cc2ccc3c(c2)OCO3)C1=O,AC50,[20],19.8 µM (active)
O=C(NCCCN1CCOCC1)C1COc2ccccc2O1 (configuration not stated),AC50,[9],inconclusive
same,AC50,[21]; read-out: AC50,17.8 µM (inconclusive)
same,AC50,[19],7.94 µM (inconclusive)
same,AC50,[22],14.1 µM (inconclusive)
O=C(c1cccc(C(F)(F)F)c1)N1CCC(O)(CS(=O)(=O)Cc2ccccc2)CC1,AC50,[9],inconclusive
same,AC50,[22],3.16 µM (inconclusive)
C#CCCCO/N=C1/[C@H]2O[C@@H]2[C@@H](O)[C@H]2[C@H]1CCn1c(=O)n(Cc3cc4c(cc3Cl)OCO4)c(=O)n12,AC50,[9],inconclusive
same,AC50,[21],inconclusive
O=C(Nc1ccc(Cl)c(Cl)c1)Nc1nc(-c2ccccc2)cs1,EC50,[23],> 60 µM (not active)
same,AC50,[11],24.9 µM (active)
same,EC50,[24],1.52 µM (active)
Cc1ccc(C(=O)NC(=C(Cl)Cl)S(=O)(=O)c2ccc(C)cc2)cc1,IC50,[3],5.55 µM (active)
same,IC50,[4],> 20 µM (inactive)
same,EC50,[5],14.6 µM (active)
same,IC50,[6],> 20 µM (inactive)
same,EC50,[7],2.46 µM (active)
same,AC50,[25],4.39 µM (active)
same,IC50,[8],6.28 µM (active)
O=[N+]([O-])c1ccc(N2CCN(Cc3cccc([N+](=O)[O-])c3)CC2)cc1,AC50,[11],52.6 µM (active)
